Results reported in patent US20250304537A1 (Repare Therapeutics Inc., priority 2022, published 2025).
Read-outs that look alike come from different tables or passages of the source.

Tested on: PKMYT1 (CDK1 pThr14) in FUOV1 cells
Test: PKMYT1 cell-based activity assay, CDK1 pThr14 AlphaLISA in FUOV1 cells
Conditions: 2 h, read-out: FUOV-1 CDK1 pThr14 IC50
Procedure, shortened: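 IC50 was derived from AlphaLISA signal (excitation 680 nm, emission 615 nm) for phospho-Thr14 CDK1 in lysates. The detection antibodies were rabbit anti-pThr14 and mouse anti-total CDK1, each at 5 nM. FUOV1 ovarian cells were exposed to compound for 2 hours before lysis.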

Compound: Cc1ccc2[nH]ncc2c1-c1nc(-c2cc(Cl)ncc2Nc2ncccc2F)nc(C(N)=O)c1N [Compound 939]
- IC50 (2 hours with compound): 9 nM

Compound: Cc1ccc2[nH]ncc2c1-c1nc(-c2cc(F)cnc2N[C@H]2CCOC[C@@H]2O)nc(C(N)=O)c1N [Compound 801]
- IC50 (2 hours with compound): > 10000 nM

Compound: Cc1cc(Nc2cc(F)ccc2-c2nc(C(N)=O)c(N)c(-c3c(C)ccc4[nH]ncc34)n2)nc(C)n1 [Compound 578]
- IC50 (2 h compound incubation): 150 nM

Compound: NC(=O)c1nc(-c2cccnc2NC2CC2)nc(-c2c(Cl)cc(F)c3[nH]ncc23)c1N [Compound 967]
- IC50 (2 hours with compound): 212 nM

Compound: Cc1ccc2[nH]ncc2c1-c1nc(-c2ccc(F)cc2Nc2nccc(C#N)n2)nc(C(N)=O)c1N [Compound 532]
- IC50 (2 h compound incubation): 21 nM

Compound: Cc1ccc2[nH]ncc2c1-c1nc(-c2ccc(F)cc2Nc2cc(C3(C#N)CC3)ccn2)nc(C(N)=O)c1N [Compound 698]
- IC50 (2 h compound incubation): 1610 nM

Compound: Cc1ccc(-c2nc(C(N)=O)c(N)c(-c3c(C)ccc4[nH]ncc34)n2)c(Nc2ncccc2F)n1 [Compound 911]
- IC50 (2 hours with compound): 1 nM

Compound: Cc1ccc2[nH]ncc2c1-c1nc(-c2ccc(F)cc2Nc2cccc(C#N)c2)nc(C(N)=O)c1N [Compound 580, 5-amino-2-(2-((3-cyanophenyl)amino)-4-fluorophenyl)-6-(5-methyl-1H-indazol-4-yl)pyrimidine-4-carboxamide]
- IC50 (2 h compound incubation): 44 nM

Compound: Cc1ccc2[nH]ncc2c1-c1nc(-c2ccc(F)cc2Nc2ncccn2)nc(C(N)=O)c1N [Compound 511]
- IC50 (2 h compound incubation): 25 nM

Compound: Cc1ccc2[nH]ncc2c1-c1nc(-c2cn(C(F)(F)F)nc2NC2CCOCC2)nc(C(N)=O)c1N [Compound 910]
- IC50 (2 hours with compound): 200 nM

Compound: Cc1ccc2[nH]ncc2c1-c1nc(-c2ccc(F)cc2Nc2ccccn2)nc(C(N)=O)c1N [Compound 516]
- IC50 (2 h compound incubation): 30 nM

Compound: Cc1ccc2[nH]ncc2c1-c1nc(-c2cccnc2Nc2nc(C(F)F)ccc2F)nc(C(N)=O)c1N [Compound 842]
- IC50 (2 hours with compound): 3 nM

Compound: Cc1ccnc(Nc2ncccc2-c2nc(C(N)=O)c(N)c(-c3c(C)ccc4[nH]ncc34)n2)c1C [Compound 738]
- IC50 (2 h compound incubation): 383 nM

Compound: Cc1ccc2[nH]ncc2c1-c1nc(-c2cc(F)cnc2OC2CC(C)(O)C2)nc(C(N)=O)c1N (stereo not shown) [Compound 841]
- IC50 (2 hours with compound): 1120 nM

Compound: Cc1ccc2[nH]ncc2c1-c1nc(-c2cccnc2Nc2nc(F)ccc2Cl)nc(C(N)=O)c1N [Compound 752]
- IC50 (2 h compound incubation): 2 nM

Compound: Cc1ccc2[nH]ncc2c1-c1nc(-c2cc(F)cnc2NC2CC(F)(F)C2)nc(C(N)=O)c1N [Compound 678]
- IC50 (2 h compound incubation): 31 nM

Compound: Cc1ccc2[nH]ncc2c1-c1nc(-c2ccc(F)cc2Nc2ccncc2C#N)nc(C(N)=O)c1N [Compound 590]
- IC50 (2 h compound incubation): 8 nM

Compound: Cc1ccc2[nH]ncc2c1-c1nc(-c2ccncc2NC(=O)OC(C)(C)C)nc(C(N)=O)c1N [Compound 495]
- IC50 (2 h compound incubation): 198 nM

Compound: Cc1ccc(-c2nc(C(N)=O)c(N)c(-c3c(C)ccc4[nH]ncc34)n2)c(Nc2nccc(Cl)n2)n1 [Compound 941]
- IC50 (2 hours with compound): 9 nM

Compound: NC(=O)c1nc(-c2ccc(F)nc2Nc2ncccc2F)nc(-c2c(Cl)ccc3[nH]ncc23)c1N [Compound 913]
- IC50 (2 hours with compound): 8 nM

Compound: Cc1cc(Nc2cc(F)ccc2-c2nc(C(N)=O)c(N)c(-c3c(C)ccc4[nH]ncc34)n2)cc(C#N)n1 [Compound 586]
- IC50 (2 h compound incubation): 75 nM

Compound: Cc1cc(F)c2[nH]ncc2c1-c1nc(-c2ccc(C(F)F)nc2Nc2nccnc2Cl)nc(C(N)=O)c1N [Compound 909]
- IC50 (2 hours with compound): 107 nM

Compound: Cc1ccc2[nH]ncc2c1-c1nc(-c2ccc(F)cc2Nc2nccnc2C)nc(C(N)=O)c1N [Compound 640]
- IC50 (2 h compound incubation): 2 nM

Compound: Cc1ccc2[nH]ncc2c1-c1nc(-c2cccnc2Nc2nc(F)ccc2F)nc(C(N)=O)c1N [Compound 660]
- IC50 (2 h compound incubation): 2 nM

Compound: Cc1ccc2[nH]ncc2c1-c1nc(-c2ccc(F)cc2NS(C)(=O)=O)nc(C(N)=O)c1N [Compound 512]
- IC50 (2 h compound incubation): 52 nM

Compound: Cc1ccc2[nH]ncc2c1-c1cc(-c2ccnc(OCc3ccco3)n2)nc(C(N)=O)c1N [Compound 213]
- IC50 (2 h incubation): 404 nM

Compound: Cc1ccc2[nH]ncc2c1-c1nc(-c2cccnc2NC[C@H]2CCCOC2)nc(C(N)=O)c1N [Compound 667]
- IC50 (2 h compound incubation): 42 nM

Compound: Cc1ccc2[nH]ncc2c1-c1nc(-c2ccc(F)nc2Nc2ncccc2C(F)F)nc(C(N)=O)c1N [Compound 945]
- IC50 (2 hours with compound): 23 nM

Compound: Cc1ccc2[nH]ncc2c1-c1nc(-c2cc(F)c(F)cc2NC2CCS(=O)(=O)CC2)nc(C(N)=O)c1N [Compound 529]
- IC50 (2 h compound incubation): 251 nM

Compound: COCC(COC)Nc1cc(F)c(F)cc1-c1nc(C(N)=O)c(N)c(-c2c(C)ccc3[nH]ncc23)n1 [Compound 508]
- IC50 (2 h compound incubation): 622 nM

Compound: COc1cc(-c2nc(C(N)=O)c(N)c(-c3c(C)ccc4[nH]ncc34)n2)ccn1 [Compound 135]
- IC50 (2 h incubation): 1150 nM

Compound: Cc1ccc2[nH]ncc2c1-c1nc(-c2cc(C#N)ccc2Nc2ncccn2)nc(C(N)=O)c1N [Compound 789]
- IC50 (2 h compound incubation): 43 nM

Compound: Cc1cc(F)c2[nH]ncc2c1-c1nc(-c2cc(F)cnc2N[C@H]2CC[C@@](C)(O)CC2)nc(C(N)=O)c1N [Compound 875]
- IC50 (2 hours with compound): 170 nM

Compound: COCCCNc1ncccc1-c1nc(C(N)=O)c(N)c(-c2c(C)ccc3[nH]ncc23)n1 [Compound 537]
- IC50 (2 h compound incubation): 256 nM

Compound: Cc1ccc(F)c(Nc2ncccc2-c2nc(C(N)=O)c(N)c(-c3c(Cl)ccc4[nH]ncc34)n2)n1 [Compound 798]
- IC50 (2 hours with compound): 5 nM

Compound: Cc1ccc2[nH]ncc2c1-c1nc(-c2cc(F)c(F)cc2NC2CC(C)(C)NC(C)(C)C2)nc(C(N)=O)c1N [Compound 502]
- IC50 (2 h compound incubation): 871 nM

Compound: Cc1ccc2[nH]ncc2c1-c1nc(-c2cccnc2NC2CCN(C)C2=O)nc(C(N)=O)c1N (stereo not shown) [Compound 561]
- IC50 (2 h compound incubation): 426 nM

Compound: Cc1ccc2[nH]ncc2c1-c1nc(-c2cc(F)cnc2N[C@H]2C[C@H]3CC[C@@H]2O3)nc(C(N)=O)c1N [Compound 891]
- IC50 (2 hours with compound): 22 nM

Compound: Cc1ccc2[nH]ncc2c1-c1nc(-c2ccc(F)cc2Nc2cncc(C#N)n2)nc(C(N)=O)c1N [Compound 706]
- IC50 (2 h compound incubation): 56 nM

Compound: Cc1ccc2[nH]ncc2c1-c1nc(-c2cccnc2NCC2(C)COC2)nc(C(N)=O)c1N [Compound 661]
- IC50 (2 h compound incubation): 383 nM

Compound: Cc1cnc(Cl)c(Nc2ncccc2-c2nc(C(N)=O)c(N)c(-c3c(C)ccc4[nH]ncc34)n2)n1 [Compound 744]
- IC50 (2 h compound incubation): 8 nM

Compound: Cc1c(F)cc2[nH]ncc2c1-c1nc(-c2ccc(F)nc2Nc2nccnc2C(F)F)nc(C(N)=O)c1N [Compound 854]
- IC50 (2 hours with compound): 88 nM

Compound: Cc1ccc2[nH]ncc2c1-c1nc(-c2ccc(F)cc2Nc2cccc(F)c2)nc(C(N)=O)c1N [Compound 663]
- IC50 (2 h compound incubation): 359 nM

Compound: Cc1ccc2[nH]ncc2c1-c1cc2c(oc3ccc(O[C@H]4CCOC4)nc32)c(C(N)=O)c1N [Compound 574]
- IC50 (2 h compound incubation): 1330 nM

Compound: Cc1ccc2[nH]ncc2c1-c1nc(-c2cc(F)cnc2N[C@H]2C[C@@H]3CC[C@H]2O3)nc(C(N)=O)c1N [Compound 899]
- IC50 (2 hours with compound): 33 nM

Compound: Cc1ccc2[nH]ncc2c1-c1nc(-c2cc(F)c(F)cc2NCC(N)CO)nc(C(N)=O)c1N (stereo not shown) [Compound 501]
- IC50 (2 h compound incubation): 146 nM

Compound: Cc1ccc(-c2nc(C(N)=O)c(N)c(-c3c(C)ccc4[nH]ncc34)n2)c(Nc2ncccn2)n1 [Compound 764]
- IC50 (2 h compound incubation): 25 nM

Compound: Cc1ccc2[nH]ncc2c1-c1nc(-c2cc(F)cnc2N[C@@H]2COC[C@@H]2O)nc(C(N)=O)c1N [Compound 814]
- IC50 (2 hours with compound): 71 nM

Compound: Cc1ccc(-c2nc(C(N)=O)c(N)c(-c3c(F)ccc4[nH]ncc34)n2)c(Nc2ncccc2F)n1 [Compound 952]
- IC50 (2 hours with compound): 1 nM

Compound: Cc1ccc2[nH]ncc2c1-c1nc(-c2ccc(F)cc2Nc2ccnnc2)nc(C(N)=O)c1N [Compound 553]
- IC50 (2 h compound incubation): 183 nM

Compound: Cc1ccc2[nH]ncc2c1-c1cc(-c2ccnc(OCC3(C#N)CC3)n2)nc(C(N)=O)c1N [Compound 324]
- IC50 (2 h incubation): 303 nM

Compound: Cc1ccc2[nH]ncc2c1-c1nc(-c2ccc(Cl)nc2Nc2nccnc2Cl)nc(C(N)=O)c1N [Compound 770]
- IC50 (2 h compound incubation): 17 nM

Compound: Cc1ccc2[nH]ncc2c1-c1nc(-c2cc(F)ccc2NS(=O)(=O)C2CC(F)(F)C2)nc(C(N)=O)c1N [Compound 514]
- IC50 (2 h compound incubation): 1340 nM

Compound: CO[C@H]1C[C@H](Nc2ncccc2-c2nc(C(N)=O)c(N)c(-c3c(C)ccc4[nH]ncc34)n2)C1 [Compound 551]
- IC50 (2 h compound incubation): 151 nM

Compound: Cc1ccc2[nH]ncc2c1-c1nc(-c2cc(F)ccc2NS(=O)(=O)C2CCCC2)nc(C(N)=O)c1N [Compound 531]
- IC50 (2 h compound incubation): 918 nM

Compound: Cc1ccc2[nH]ncc2c1-c1nc(-c2ccc(Cl)nc2Nc2nccnc2F)nc(C(N)=O)c1N [Compound 825]
- IC50 (2 hours with compound): 9 nM

Compound: Cc1ccc2[nH]ncc2c1-c1nc(-c2cc(F)cnc2NC2CCN(C)CC2)nc(C(N)=O)c1N [Compound 838]
- IC50 (2 hours with compound): 55 nM

Compound: Cc1ccc2[nH]ncc2c1-c1nc(-c2ccc(C#N)cc2NC2CCOCC2)nc(C(N)=O)c1N [Compound 782]
- IC50 (2 h compound incubation): 25 nM

Compound: Cc1ccc2[nH]ncc2c1-c1nc(-c2cc(Cl)ccc2Nc2ncccn2)nc(C(N)=O)c1N [Compound 637]
- IC50 (2 h compound incubation): 241 nM

Compound: Cc1ccc2[nH]ncc2c1-c1nc(-c2ccc(Cl)cc2Nc2ncccn2)nc(C(N)=O)c1N [Compound 654]
- IC50 (2 h compound incubation): 77 nM

Compound: Cc1ccc2[nH]ncc2c1-c1nc(-c2cc(F)cnc2NC2CCN(CC(F)(F)F)CC2)nc(C(N)=O)c1N [Compound 863]
- IC50 (2 hours with compound): 2080 nM

Compound: Cc1ccc(F)c(Nc2ncccc2-c2nc(C(N)=O)c(N)c(-c3c(C)ccc4[nH]ncc34)n2)n1 [Compound 697]
- IC50 (2 h compound incubation): 2 nM

Compound: Cc1ccc2[nH]ncc2c1-c1nc(-c2ccc(F)cc2N[C@H]2C[C@H](O)C2)nc(C(N)=O)c1N [Compound 906]
- IC50 (2 hours with compound): 51 nM

Compound: Cc1ccc(Cl)c(Nc2ncccc2-c2nc(C(N)=O)c(N)c(-c3c(C)ccc4[nH]ncc34)n2)n1 [Compound 716]
- IC50 (2 h compound incubation): 13 nM

Compound: Cc1ccc2[nH]ncc2c1-c1nc(-c2cc(F)cnc2NC(C)C)nc(C(N)=O)c1N [Compound 679]
- IC50 (2 h compound incubation): 13 nM

Compound: [2H]C([2H])([2H])c1ccc2[nH]ncc2c1-c1nc(-c2ccc(C3CC3)nc2Nc2nc(C)ncc2F)nc(C(N)=O)c1N [Compound 977]
- IC50 (2 hours with compound): 203 nM

Compound: COc1cc(-c2nc(C(N)=O)c(N)c(-c3c(C)ccc4[nH]ncc34)n2)c(Nc2ncccc2F)cn1 [Compound 976, 5-amino-2-(5-((3-fluoropyridin-2-yl)amino)-2-methoxypyridin-4-yl)-6-(5-methyl-1H-indazol-4-yl)pyrimidine-4-carboxamide]
- IC50 (2 hours with compound): 22 nM
